Experimental data taken from ChEMBL document CHEMBL1201862, “PubChem BioAssay data set” (2004).
Values belong to the molecule of their own block, whether it stands above or below them. Active and inactive are the calls of the source.

Tests used:
Cytochrome P450 3A4 = Cytochrome P450 3A4 (Homo sapiens, UniProt P08684); details: Potency;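 further: confirmatory qHTS run detecting inhibitors and substrates of CYP3A4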
[1] = Shn3 3'UTR reporter inhibitors, dose response, cell-based, Clone20 osteoblasts, firefly luciferase, cherry-picked (AID 624132); format: functional;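 further: firefly luciferase luminescence from reporter carrying the Shn3 3'UTR in osteoblasts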
INS1 = experiment: beta cell apoptosis inhibitors, cytokine rescue, dose response, luminescence, retest (AID 449756); format: functional, cell-based; details: Rattus norvegicus;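 further: cell death triggered by IL-1 beta plus TNF-alpha plus IFN-gamma mixture; protective hits raise ATP signal compared with cytokine alone wells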
[2] = control 3'UTR Renilla luciferase suppression, dose response, counter-screen for Shn3 inhibitor project, cell-based, Clone20-Shn3RL, cherry-picked (AID 624133); format: functional
[3] = biological target: T1, COUP transcription factor 2 (Homo sapiens, UniProt P24468); experiment: Luminescence-based cell-based high throughput dose response assay to identify inhibitors of COUP-TFII (NR2F2).; format: functional;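 further: HEK293 cells transiently cotransfected with COUP-TFII expression vector and reporter; luciferase reporter luminescence driven by COUP-TFII from the pX2-168 reporter plasmid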
T1 sequence (P24468 whole entry): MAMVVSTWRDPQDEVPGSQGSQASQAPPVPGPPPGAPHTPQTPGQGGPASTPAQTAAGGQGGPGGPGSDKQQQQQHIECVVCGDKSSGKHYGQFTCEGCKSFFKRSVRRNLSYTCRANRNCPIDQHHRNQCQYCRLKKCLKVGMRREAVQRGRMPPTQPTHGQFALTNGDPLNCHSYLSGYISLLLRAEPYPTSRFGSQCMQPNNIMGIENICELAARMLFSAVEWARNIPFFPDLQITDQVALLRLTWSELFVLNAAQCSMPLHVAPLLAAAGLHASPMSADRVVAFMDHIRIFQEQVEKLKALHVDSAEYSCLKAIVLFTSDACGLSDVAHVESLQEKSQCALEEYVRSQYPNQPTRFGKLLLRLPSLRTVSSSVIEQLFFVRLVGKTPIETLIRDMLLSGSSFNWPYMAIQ

[4] = HepG2 cell cytotoxicity, dose response, cytotoxicity control for Shn3 inhibitor project, CellTiter-Glo, cherry-picked (AID 624134); format: functional, cell-based
Protein Wnt-3a = Protein Wnt-3a (Mus musculus, UniProt P27467); experiment: Wnt3a-driven reporter signaling inhibition, dose response, selectivity assay for Gli-SUFU antagonist project, Wnt-LIGHT cells, luminescence (AID 651570); format: functional; details: read-out: IC50_Mean;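 further: Wnt-LIGHT reporter cells stimulated with conditioned medium from Wnt3a-producing cells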
[5] = cytotoxicity in HEK-293T cells, dose response, cytotoxicity control for BCR NF-kB inhibitor project, luminescence, B-cell screen hits (AID 489021); format: functional, cell-based;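 further: HEK-293T cells carrying an NF-kB luciferase reporter; cells exposed to compound for about 14 hours before viability readout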
[6] = Vero cell cytotoxicity, dose response, cytotoxicity control for Vif-APOBEC3G degradation inhibitor project, Vero cells (AID 1117358); format: functional; details: Human immunodeficiency virus 1, Vero
BJ [7] = experiment: cytotoxicity toward BJ-TERT-LT-ST fibroblasts, dose response, cell-based, RAS-independent, luminescence (AID 1935); format: functional; details: Homo sapiens;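 further: BJ fibroblasts immortalized with TERT plus LT and ST oncogenes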
BJ [8] = experiment: cytotoxicity toward Ras-transformed BJeLR fibroblasts, dose response, cell-based, alamar blue fluorescence, cherrypicked samples (AID 2631); format: functional; details: Homo sapiens;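 further: confirmatory dose-response assay in RAS-dependent BJ fibroblasts engineered with TERT, LT and ST, with cytotoxicity read by fluorescence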
[9] = cytotoxicity toward DRD oncogenic fibroblasts, dose response, cell-based, non-viral oncogenic, luminescence (AID 1934); format: functional; details: Homo sapiens
BJ [10] = experiment: cytotoxicity toward BJ-TERT fibroblasts, dose response, cell-based, RAS-independent, luminescence (AID 1933); format: functional; details: Homo sapiens
BJ [11] = experiment: cells; format: functional, cell-based; details: Homo sapiens
[12] = biological target: G-protein coupled receptor 55 (Homo sapiens, UniProt Q9Y2T6); experiment: GPR55 agonists via beta-arrestin recruitment, primary screen, imaging, U2OS cells, beta-arrestin-GFP redistribution (AID 1961); format: functional
Cytochrome P450 2D6 = Cytochrome P450 2D6 (Homo sapiens, UniProt P10635);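 further: CYP2D6 member of a cytochrome P450 panel assay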
[13] = HepG2 cell cytotoxicity, dose response, cytotoxicity control, plate reader, cherry-pick, antagonist series (AID 743416); format: functional, cell-based
[14] = MC4R antagonists, dose response, counter-screen for LGR2 antagonist project, cell-based, plate reader, cherry pick (AID 743444); format: functional;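 further: transfected HEK 293 cells stimulated with alpha-MSH peptide; potency of inhibitors of the alpha-MSH evoked signal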
[15] = LGR2 antagonists, dose response, cell-based, HEK293, CRE-luciferase reporter, cherry pick, set 2 (AID 743343); format: functional;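 further: transfected cells were stimulated with diluted bursicon conditioned medium after compound addition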
[16] = HEK293 cell cytotoxicity, dose response, cytotoxicity control, plate reader, cherry-picked samples (AID 743446); format: functional, cell-based
[17] = A549 cell cytotoxicity, dose response, cytotoxicity control, plate reader, cherry-pick, antagonist series (AID 743412); format: functional, cell-based
[18] = inhibitors of Vif binding to APOBEC3G peptide, primary screen, biochemical, TR-FRET, GST-Vif 1-94, biotin-A3G peptide, dose response retest (AID 1117319); format: functional;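 further: TR-FRET signal of purified GST-Vif binding a biotinylated A3G peptide; inhibitors lower the FRET signal by blocking Vif and A3G binding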
Leucine aminopeptidase = biological target: T2, Leucine aminopeptidase (Plasmodium falciparum 3D7, UniProt Q8IL11); experiment: P. falciparum M17LAP inhibitors, primary screen, biochemical, fluorogenic H-Leu-NHMec substrate, 1536-well (AID 1619); format: functional
T2 sequence (Q8IL11 whole entry): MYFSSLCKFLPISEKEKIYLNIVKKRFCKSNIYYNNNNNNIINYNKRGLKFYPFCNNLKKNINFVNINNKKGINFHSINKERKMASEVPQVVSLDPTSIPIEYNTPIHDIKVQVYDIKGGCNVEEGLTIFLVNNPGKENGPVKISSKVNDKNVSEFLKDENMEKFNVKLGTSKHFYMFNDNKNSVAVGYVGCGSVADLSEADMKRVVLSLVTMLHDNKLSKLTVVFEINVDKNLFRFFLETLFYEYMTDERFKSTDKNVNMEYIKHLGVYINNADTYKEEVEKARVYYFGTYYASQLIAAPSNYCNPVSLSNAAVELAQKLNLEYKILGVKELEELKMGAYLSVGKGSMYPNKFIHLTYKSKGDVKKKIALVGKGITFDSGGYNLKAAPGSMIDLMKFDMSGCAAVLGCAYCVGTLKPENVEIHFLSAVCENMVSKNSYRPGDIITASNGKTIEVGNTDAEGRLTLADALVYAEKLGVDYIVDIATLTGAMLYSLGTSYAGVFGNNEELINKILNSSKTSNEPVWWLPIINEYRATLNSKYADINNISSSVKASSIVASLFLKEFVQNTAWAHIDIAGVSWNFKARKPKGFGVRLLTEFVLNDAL

Chain of Cytochrome P450 3A4 (P08684 whole entry): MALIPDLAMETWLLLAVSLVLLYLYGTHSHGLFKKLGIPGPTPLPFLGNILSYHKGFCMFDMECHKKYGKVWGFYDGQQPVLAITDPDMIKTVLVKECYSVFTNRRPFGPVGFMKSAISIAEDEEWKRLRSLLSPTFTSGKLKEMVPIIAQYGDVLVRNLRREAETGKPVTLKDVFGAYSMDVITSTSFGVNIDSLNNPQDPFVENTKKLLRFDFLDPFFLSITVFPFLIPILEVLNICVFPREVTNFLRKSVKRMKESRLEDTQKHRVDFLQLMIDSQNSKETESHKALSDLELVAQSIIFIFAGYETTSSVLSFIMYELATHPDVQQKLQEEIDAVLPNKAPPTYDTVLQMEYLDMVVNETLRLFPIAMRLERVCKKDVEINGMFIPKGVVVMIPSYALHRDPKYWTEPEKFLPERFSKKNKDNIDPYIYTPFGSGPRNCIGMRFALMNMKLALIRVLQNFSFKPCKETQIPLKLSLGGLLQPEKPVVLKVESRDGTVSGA
Chain of Cytochrome P450 2D6 (P10635 whole entry): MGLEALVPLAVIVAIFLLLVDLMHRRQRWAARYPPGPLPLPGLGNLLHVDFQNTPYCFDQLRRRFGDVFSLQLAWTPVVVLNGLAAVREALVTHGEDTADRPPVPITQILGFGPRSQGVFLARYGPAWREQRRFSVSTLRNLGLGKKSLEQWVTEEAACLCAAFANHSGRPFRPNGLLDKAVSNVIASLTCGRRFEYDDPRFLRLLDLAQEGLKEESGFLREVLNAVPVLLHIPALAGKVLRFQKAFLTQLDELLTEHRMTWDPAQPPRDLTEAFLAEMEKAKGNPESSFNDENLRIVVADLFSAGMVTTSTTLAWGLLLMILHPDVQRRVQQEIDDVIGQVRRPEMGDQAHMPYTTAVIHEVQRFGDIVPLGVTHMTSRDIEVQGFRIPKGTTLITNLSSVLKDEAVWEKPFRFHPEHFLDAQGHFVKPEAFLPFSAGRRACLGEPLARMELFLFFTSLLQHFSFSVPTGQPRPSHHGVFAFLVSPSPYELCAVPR
Chain of G-protein coupled receptor 55 (Q9Y2T6 whole entry): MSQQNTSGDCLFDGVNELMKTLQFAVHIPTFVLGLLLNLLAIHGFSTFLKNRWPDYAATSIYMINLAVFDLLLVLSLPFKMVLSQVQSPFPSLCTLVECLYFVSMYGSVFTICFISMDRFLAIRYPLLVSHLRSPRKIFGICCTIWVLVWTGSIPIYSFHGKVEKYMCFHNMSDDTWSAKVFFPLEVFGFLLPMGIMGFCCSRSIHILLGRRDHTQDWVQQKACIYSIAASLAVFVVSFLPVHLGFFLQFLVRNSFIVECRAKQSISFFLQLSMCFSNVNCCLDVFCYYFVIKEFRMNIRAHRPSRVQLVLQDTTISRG
Chain of Protein Wnt-3a (P27467 whole entry): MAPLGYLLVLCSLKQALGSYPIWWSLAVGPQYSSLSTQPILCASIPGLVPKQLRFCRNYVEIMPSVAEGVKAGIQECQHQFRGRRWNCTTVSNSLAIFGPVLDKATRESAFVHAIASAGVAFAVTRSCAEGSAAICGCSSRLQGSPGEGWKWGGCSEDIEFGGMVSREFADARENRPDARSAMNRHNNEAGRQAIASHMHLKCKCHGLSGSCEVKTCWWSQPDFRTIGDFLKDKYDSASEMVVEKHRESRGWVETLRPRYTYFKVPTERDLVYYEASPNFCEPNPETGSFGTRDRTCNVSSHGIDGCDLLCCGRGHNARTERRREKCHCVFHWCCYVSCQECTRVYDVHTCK

SMILES: CCOC(=O)[C@]1(C(NC(=O)OC)c2ccccc2)CCCC1=O (some centres not stated)
AC50 (Cytochrome P450 3A4): 2.51 µM (inconclusive)

SMILES: CCc1ccc(CN(C)C(=O)c2cc(COc3cccc4cnccc34)on2)cc1
AC50 [1]: 1.92 µM (active) | AC50 (INS1): 3.27 µM (active) | AC50 [2]: 13.5 µM (active) | IC50 [3]: 7.5 µM (active) | AC50 [4]: 3.23 µM (active) | IC50 (Protein Wnt-3a): 4.25 µM (active)

SMILES: CCn1c(S)nc2cc(S(=O)(=O)N3CCCCC3)ccc21
IC50 [5]: > 80 µM (inactive)

SMILES: COc1ccccc1-n1cnc2cc(NCc3cccs3)ccc21
CC50 [6]: > 40 µM (active) | EC50 (BJ [7]): 11 µM (inconclusive) | EC50 (BJ [8]): 0.248 µM (active) | EC50 [9]: 4.55 µM (active) | EC50 (BJ [10]): 8.39 µM (inconclusive) | EC50 (BJ [11]): 20.5 µM (active) | EC50 [12]: 2.87 µM (active)

SMILES: COc1cc(C(=O)Oc2cccc(Nc3ncnc4ccccc34)c2)cc(OC)c1OC
AC50 [13]: > 52 µM (inactive) | AC50 [14]: 17.7 µM (active) | CC50 [6]: 35.2 µM (active) | AC50 [15]: 14.1 µM (active) | AC50 [16]: > 52 µM (inactive) | AC50 [17]: 51.4 µM (active) | IC50 [18]: > 100 µM (active)

Further lines, with some results ahead:

AC50 (Cytochrome P450 3A4): 15.8 µM (inconclusive)
SMILES: COC(=O)c1cccc(C23CC4(C2)[C@H](CN(CC2CCCCC2)[C@@H]4c2ccccc2)C3c2ccc(C(F)(F)F)cc2)c1 (some centres not stated)

AC50 (Cytochrome P450 3A4): 15.8 µM (inconclusive)
SMILES: FC(F)(F)c1ccc(C2[C@H]3CN(Cc4ccc(-c5ccccc5)cc4)[C@H](c4ccccc4)C34CC2(c2cccnc2)C4)cc1 (some centres not stated)

AC50 (Cytochrome P450 2D6): 14.1 µM (inconclusive)
SMILES: O=C(CNC(=O)/C(=C\c1ccccc1)NC(=O)c1ccc(Br)cc1)OCc1ccccc1
CC50 [6]: > 40 µM (active)

IC50 (Leucine aminopeptidase): 23.6 µM (active)
SMILES: CCOc1cc(/C=C(/C#N)c2ccc(F)cc2)ccc1OCc1ccc(C(=O)O)o1
